Experiments:
Assay in all cases: relative viability (nuclei count vs DMSO), 5 days (fraction); higher = more cells survive
[1] = compound: CN[C@@H]1C[C@H]2O[C@@](C)([C@@H]1OC)n1c3ccccc3c3c4c(c5c6ccccc6n2c5c31)C(=O)NC4 [Staurosporine] + COc1cc2c(Oc3ccc(NC(=O)C4(C(=O)Nc5ccc(F)cc5)CC4)cc3F)ccnc2cc1OCCCN1CCOCC1 [Foretinib] (partner 0.25 µM)
Outline: (§1)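 Lung cancer cell lines in 1536-well plates got either a single drug or a fixed anchor-drug dose together with five library-drug doses (not always all listed) in √10 steps, by pin tool, on the day after seeding. Nuclei were counted after 5 days, and relative viability is the treated-to-vehicle ratio of nuclei counts. Values are medians of duplicate plates.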

5-Fluorouracil + OSI-027 = compound: O=c1[nH]cc(F)c(=O)[nH]1 [5-Fluorouracil] + COc1cccc2cc(-c3nc([C@H]4CC[C@H](C(=O)O)CC4)n4ncnc(N)c34)[nH]c12 [OSI-027] (partner 0.5 µM)
Outline: as §1

Sulindac + Luminespib = compound: CC1=C(CC(=O)O)c2cc(F)ccc2/C1=C\c1ccc([S+](C)[O-])cc1 [Sulindac] + CCNC(=O)c1noc(-c2cc(C(C)C)c(O)cc2O)c1-c1ccc(CN2CCOCC2)cc1 [Luminespib] (partner 0.01 µM)
Outline: as §1

Sulindac + Pemetrexed = compound: CC1=C(CC(=O)O)c2cc(F)ccc2/C1=C\c1ccc([S+](C)[O-])cc1 [Sulindac] + Nc1nc2[nH]cc(CCc3ccc(C(=O)N[C@@H](CCC(=O)O)C(=O)O)cc3)c2c(=O)[nH]1 [Pemetrexed] (partner 0.2 µM)
Outline: as §1

Row | Cell Line | relative viability ([1]; first compound 0.005 µM) | relative viability ([1]; first compound 0.01581 µM) | relative viability ([1]; first compound 0.05 µM) | relative viability ([1]; first compound 0.1581 µM) | relative viability ([1]; first compound 0.5 µM) | relative viability (5-Fluorouracil + OSI-027; first compound 0.02 µM) | relative viability (5-Fluorouracil + OSI-027; first compound 0.2 µM) | relative viability (5-Fluorouracil + OSI-027; first compound 0.6325 µM) | relative viability (5-Fluorouracil + OSI-027; first compound 2 µM) | relative viability (Sulindac + Luminespib; first compound 0.08 µM) | relative viability (Sulindac + Luminespib; first compound 0.253 µM) | relative viability (Sulindac + Luminespib; first compound 0.8 µM) | relative viability (Sulindac + Luminespib; first compound 2.53 µM) | relative viability (Sulindac + Luminespib; first compound 8 µM) | relative viability (Sulindac + Pemetrexed; first compound 0.08 µM) | relative viability (Sulindac + Pemetrexed; first compound 0.253 µM) | relative viability (Sulindac + Pemetrexed; first compound 0.8 µM) | relative viability (Sulindac + Pemetrexed; first compound 2.53 µM) | relative viability (Sulindac + Pemetrexed; first compound 8 µM)
1 | NCI-H1993 | 0.818 | 0.701 | 0.586 | 0.535 | 0.489 | 0.565 | 0.501 | 0.538 | 0.537 | 0.718 | 0.774 | 0.645 | 0.961 | 0.988 | 0.704 | 0.575 | 0.648 | 0.638 | 0.551
2 | NCI-H2342 | 1.01 | 0.816 | 0.486 | 0.516 | 0.4 | 0.698 | 0.731 | 0.735 | 0.638 | 0.636 | 0.767 | 0.7 | 0.761 | 0.821 | 0.742 | 0.714 | 0.739 | 0.746 | 0.781
3 | NCI-H520 | 0.692 | 0.759 | 0.548 | 0.409 | 0.18 | 0.191 | 0.294 | 0.252 | 0.226 | 0.21 | 0.204 | 0.246 | 0.228 | 0.199 | 0.893 | 0.613 | 0.488 | 0.642 | 0.813
4 | LCLC-103H | 0.668 | 0.178 | 0.171 | 0.161 | 0.142 | 0.503 | 0.59 | 0.379 | 0.311 | 1.21 | 1.09 | 0.751 | 0.886 | 0.996 | 0.458 | 0.45 | 0.505 | 0.44 | 0.491
5 | NCI-H1975 | 0.4 | 0.349 | 0.21 | 0.104 | 0.0901 | 0.793 | 0.793 | 0.417 | 0.26 | 0.189 | 0.205 | 0.159 | 0.174 | 0.267 | 0.316 | 0.297 | 0.245 | 0.304 | 0.313

— the supplement of paper PMC10307832
